Measured values published in US11186614B2, “Anti-HIV peptides” (priority 2016, dated 2021).
“Also recorded” adds a separate entry of the source.

Tests used:
[1] = test system: U1hpII; assay: SPR binding to U1hpII; settings: FIG. 4D
Source text: FIG. 4A-F depict the TBP evolution screen.

[2] = test system: HIV TAR; assay: ELISA RNA binding of SUMO fusion proteins, HIV TAR; parameters: species or system HIV-1
Source text: (§1) FIG. 6A-B depicts SUMO-(GGS)3-β2-β3 and graphs of ELISA data. (A) Diagram of the SUMO-(GGS)3-β2-β3 hairpin loop of TBP6.7 fused to SUMO.
(§2) Protein engineering was used to test whether an isolated β2-β3 hairpin of TBP6.7 (FIG. 2) retains TAR binding. Specifically, a fusion protein was created comprising the TBP6.7 β2-β3 hairpin (FIG. 6A) linked by flexible, soluble spacer (GGS)3 to SUMO (Small Ubiquitin-like Modifier), a 12 kDa protein that expresses well in E. coli and stabilizes a variety of structurally diverse fusion proteins.^114 The affinity for TAR was then measured by ELISA (FIG. 6B).
(§3) To test for TAR binding by the isolated β2-β3 loop sequence, we first fused this short peptide to SUMO (Small Ubiquitin-like Modifier). […] Arg-to-Ala mutants were then tested.
(§4) SUMO is 12 kDa protein that expresses well in E. coli and stabilizes a variety of diverse fusion proteins. A β2-β3 loop peptide comprising the sequence L^41-to-F^59—or mutants thereof—was fused to a flexible GGS linker at the SUMO C-terminus, and RNA binding was measured by ELISA. […] Stapling was accomplished by inserting nucleophiles using L44C and F56C mutations. Following treatment with a reducing agent (DTT), chemical cyclization was achieved by SNAr conjugation using polyfluorinated biarylsulfoxide; β2-β3 loop peptides with R-to-A mutations were prepared similarly. […]

[3] = test system: U1hpII; assay: ELISA RNA binding of SUMO fusion proteins, U1hpII
Source text: as §1, §2, §3, §4

[4] = test system: BIV TAR; assay: ELISA RNA binding of SUMO fusion proteins, BIV TAR; parameters: species or system Bovine immunodeficiency virus
Source text: as §1, §2, §3, §4

[5] = test system: TAR; settings: FIG. 4D
Source text: (A) Yeast display platform to identify U1A-derived proteins that bind TAR. […] (C) ELISA data depicting binding between evolved proteins and TAR. […] (E) Sequences of TAR mutants used to elucidate TBP6.6 and TBP 6.7 binding selectivity. (F) ELISA data showing relative affinities between TBP6.6 or TBP6.7.

In the case of “U1A: parental RRM protein, starting protein whose native target is U1hpII”, the “SPR recognition of U1hpII” value [1] is reported as “tightly binds U1hpII”, the “ELISA binding to HIV TAR” value [2] is reported as “did not interact with BIV or HIV TAR” and the “ELISA binding to U1hpII” value [3] is reported as “highest relative level of binding; also recorded: binds U1hpII”. For the same molecule, the “ELISA binding to BIV TAR” value [4] was “did not interact with BIV or HIV TAR” and the “SPR recognition of TAR” value [5] was “does not bind TAR”.

B1: SUMO: Small Ubiquitin-like Modifier, a 12 kDa protein, fusion partner control (protein, UniProt Q12306 2-98, looked up)
Ubiquitin-like protein SMT3: SDSEVNQEAKPEVKPEVKPETHINLKVSDGSSEIFFKIKKTTPLRRLMEAFAKRQGKEMDSLRFLYDGIRIQADQTPEDLDMEDNDIIEAHREQIGG
With B1 the “ELISA binding to HIV TAR” value [2] was “does not have appreciable TAR binding; also recorded: no appreciable RNA binding; also recorded: does not bind”, the “ELISA binding to U1hpII” value [3] was “no appreciable RNA binding; also recorded: does not bind” and the “ELISA binding to BIV TAR” value [4] was “no appreciable RNA binding; also recorded: does not bind”.
